Laboratory results: publication PMC11018007, “Synthesis, carbonic anhydrase inhibition studies and modelling investigations of phthalimide–hydantoin hybrids” (Journal of Enzyme Inhibition and Medicinal Chemistry, 2024)
Blank lines part the entries; values can stand above or below the molecule they belong to.

What was measured:
hCA II = biological target: T1, hCA II (Homo sapiens, UniProt P00918); assay: stopped-flow CO2 hydrase assay; type: biochemical
T1 construct: gene CA2; recombinant from plasmid pACA/hCA II, E. coli BL21 (DE3)
Text: (§1) stopped-flow CO2 hydrase assay on hCA II

hCA VII = biological target: T2, hCA VII (Homo sapiens, UniProt P43166); assay: stopped-flow CO2 hydrase assay; type: biochemical
T2 construct: gene CA7; in-house recombinant protein; construct not described here
T2 sequence (P43166 whole entry): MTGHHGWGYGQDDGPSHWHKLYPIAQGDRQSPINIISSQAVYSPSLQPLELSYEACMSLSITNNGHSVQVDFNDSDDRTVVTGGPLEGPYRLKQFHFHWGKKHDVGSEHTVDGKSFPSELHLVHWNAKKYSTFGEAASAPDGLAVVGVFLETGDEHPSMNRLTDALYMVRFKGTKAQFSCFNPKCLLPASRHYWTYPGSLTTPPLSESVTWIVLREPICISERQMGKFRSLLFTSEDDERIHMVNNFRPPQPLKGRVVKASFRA
Text: stopped-flow CO2 hydrase assay on hCA VII

hCA IX = biological target: T3, hCA IX (Homo sapiens, UniProt Q16790); assay: stopped-flow CO2 hydrase assay; type: biochemical
T3 construct: gene CA9
Text: stopped-flow CO2 hydrase assay on hCA IX

hCA VI = biological target: T4, hCA VI (Homo sapiens, UniProt P23280); assay: stopped-flow CO2 hydrase assay; type: biochemical
T4 construct: gene CA6; secreted isoform; in-house recombinant protein; construct not described here
T4 sequence (P23280 18-308): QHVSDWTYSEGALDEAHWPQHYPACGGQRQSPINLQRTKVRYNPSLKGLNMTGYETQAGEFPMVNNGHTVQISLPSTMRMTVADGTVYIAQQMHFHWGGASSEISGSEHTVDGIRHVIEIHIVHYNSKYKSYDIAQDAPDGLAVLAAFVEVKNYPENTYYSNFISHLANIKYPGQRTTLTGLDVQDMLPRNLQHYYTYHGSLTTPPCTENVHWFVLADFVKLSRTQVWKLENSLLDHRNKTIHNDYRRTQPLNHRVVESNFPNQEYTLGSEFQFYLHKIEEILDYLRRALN
Text: stopped-flow CO2 hydrase assay on hCA VI

hCA I = biological target: T5, hCA I (Homo sapiens, UniProt P00915); assay: stopped-flow CO2 hydrase assay; type: biochemical
T5 construct: gene CA1; recombinant from plasmid pACA/hCA I, E. coli BL21 (DE3)
T5 sequence (P00915 2-261): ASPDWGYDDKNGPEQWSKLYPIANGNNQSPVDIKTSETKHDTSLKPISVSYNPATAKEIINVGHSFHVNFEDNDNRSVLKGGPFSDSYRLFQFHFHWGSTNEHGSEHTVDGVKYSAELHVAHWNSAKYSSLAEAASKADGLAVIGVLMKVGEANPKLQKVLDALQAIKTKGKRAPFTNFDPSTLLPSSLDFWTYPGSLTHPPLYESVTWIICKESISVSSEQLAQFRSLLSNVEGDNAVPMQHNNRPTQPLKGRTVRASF
Text: stopped-flow CO2 hydrase assay on hCA I

[1] = stopped-flow CO2 hydrase assay; type: biochemical, Homo sapiens; conditions: read-out: KI (μM) ^a / hCA I
Text: as §1

SMILES: O=C1CN(N2C(=O)c3ccccc3C2=O)C(=O)N1 [3a, Potassium 3-(1,3-dioxoisoindolin-2-yl)-2,5-dioxoimidazolidin-1-ide]
Ki (hCA II): 6.94 µM | Ki (hCA VII): 0.075 µM | Ki (hCA IX): 0.331 µM | Ki (hCA VI): 0.405 µM | Ki (hCA I): > 100 µM

SMILES: O=C1CN(N2C(=O)c3ccc([N+](=O)[O-])cc3C2=O)C(=O)N1 [3b, Potassium 3-(5-nitro-1,3-dioxoisoindolin-2-yl)-2,5-dioxoimidazolidin-1-ide]
Ki (hCA II): 8.99 µM | Ki (hCA VII): 0.163 µM | Ki (hCA IX): 0.488 µM | Ki (hCA VI): 0.701 µM | Ki (hCA I): > 100 µM

SMILES: O=C1CN(N2C(=O)c3ccc([N+](=O)[O-])cc3C2=O)C(=O)N1Cc1ccccc1 [6b, 2-(3-Benzyl-2,4-dioxoimidazolidin-1-yl)-5-nitroisoindoline-1,3-dione]
Ki [1]: > 100 µM | Ki (hCA VII): 45.9 µM | Ki (hCA IX): 2.73 µM | Ki (hCA VI): 40.2 µM | Ki (hCA I): > 100 µM

SMILES: O=C1CN(N2C(=O)c3ccc([N+](=O)[O-])cc3C2=O)C(=O)N1Cc1ccc([N+](=O)[O-])cc1 [6d, 5-Nitro-2-(3-(4-nitrobenzyl)-2,4-dioxoimidazolidin-1-yl)isoindoline-1,3-dione]
Ki [1]: > 100 µM | Ki (hCA VII): 26.3 µM | Ki (hCA IX): 4.58 µM | Ki (hCA VI): 49.8 µM | Ki (hCA I): > 100 µM

SMILES: O=C1CN(NC(=O)c2cc([N+](=O)[O-])ccc2C(=O)O)C(=O)N1 [compound 5, 2-((2,4-Dioxoimidazolidin-1-yl)carbamoyl)-4-nitrobenzoic acid]
Ki (hCA II): 58.6 µM | Ki (hCA VII): 13.9 µM | Ki (hCA IX): 4.06 µM | Ki (hCA VI): 10.5 µM | Ki (hCA I): > 100 µM

Second part, the molecule after the results:

Ki [1]: > 100 µM | Ki (hCA VII): 33.7 µM | Ki (hCA IX): 3.73 µM | Ki (hCA VI): 57.7 µM | Ki (hCA I): > 100 µM
SMILES: O=C1CN(N2C(=O)c3ccccc3C2=O)C(=O)N1Cc1ccccc1 [6a, 2-(3-Benzyl-2,4-dioxoimidazolidin-1-yl)isoindoline-1,3-dione]

Ki [1]: > 100 µM | Ki (hCA VII): 37.6 µM | Ki (hCA IX): 5.68 µM | Ki (hCA VI): 50.2 µM | Ki (hCA I): > 100 µM
SMILES: O=C1CN(N2C(=O)c3ccccc3C2=O)C(=O)N1Cc1ccc([N+](=O)[O-])cc1 [6c, 2-(3-(4-Nitrobenzyl)-2,4-dioxoimidazolidin-1-yl)isoindoline-1,3-dione]

Ki [1]: > 100 µM | Ki (hCA VII): 59.1 µM | Ki (hCA IX): 4.82 µM | Ki (hCA VI): 48.5 µM | Ki (hCA I): > 100 µM
SMILES: N#Cc1ccc(CN2C(=O)CN(N3C(=O)c4ccccc4C3=O)C2=O)cc1 [6e, 4-((3-(1,3-Dioxoisoindolin-2-yl)-2,5-dioxoimidazolidin-1-yl)methyl)benzonitrile]

Ki [1]: > 100 µM | Ki (hCA VII): 50.5 µM | Ki (hCA IX): 6.49 µM | Ki (hCA VI): 64.3 µM | Ki (hCA I): > 100 µM
SMILES: N#Cc1ccc(CN2C(=O)CN(N3C(=O)c4ccc([N+](=O)[O-])cc4C3=O)C2=O)cc1 [6f, 4-((3-(5-Nitro-1,3-dioxoisoindolin-2-yl)-2,5-dioxoimidazolidin-1-yl)methyl)benzonitrile]
